The text below walks through data of article PMC10499737 (Inflammation Research, 2023).

SMILES strings stand for the structures. Read-outs that look alike come from different tables or passages of the source.

Details of data set [1]: method as in PMID 28800383. Conditions: Phase 1 study; cited from earlier work.
Data set [2] has as its system production of active NE in U937 cells. Nature of the data set: Inhibition of the production of active NE in a neutrophil progenitor cell line. The format is cell-based. To be noted: Homo sapiens, U-937, 48 h incubation. From the text: The inhibitory activity of BI 1291583 on the production of active NE was investigated in duplicate experiments in the human myeloid cell line U937. U937 cells were used as they constitutively express and process NE. Additionally, a myeloid cell line was used rather than primary neutrophils as CatC activates NSPs in the bone marrow during myelopoiesis and no further activation occurs once the neutrophils have entered the bloodstream; as such, the effect of CatC inhibition cannot be investigated in primary neutrophils. BI 1291583 was added to cell suspensions at a final concentration of 0.064, 0.32, 1.6, 8, 40, 200 and 1000 nM. Cells were then incubated for 48 h. Cell viability was then measured in duplicate experiments using the CellTiter-Glo® Luminescent Cell Viability Assay according to manufacturer’s instructions. For measurement of NE activity, cells were separated by centrifugation, lysed and debris removed. NE activity was measured by conversion of a fluorescent substrate. Increase in fluorescence was measured over time with a SpectramaxM5 fluorescence reader at 360 nm excitation wavelength and 460 nm emission wavelength. The reaction rate when CatC is fully saturated by BI 1291583 was used as primary readout to calculate NE activity. Percentage inhibition of NE activity in lysates treated with BI 1291583 was calculated relative to the mean of the vehicle-only control. […]

Data set [3] concerns NE activity in mouse BALF neutrophils. Nature of the data set: In vivo LPS-challenge model: NE activity in BALF neutrophil lysate. Conditions: 11-day dosing. On the procedure:
In the first—a 2-day treatment holiday regimen—mice were treated with 0.005, 0.05, 0.5 or 5 mg/kg BI 1291583, or vehicle, twice daily by oral gavage on Days 1‒5, 8 and 9. On Day 10, a final dose of BI 1291583 or vehicle was given followed by challenge with nebulised E. coli lipopolysaccharide (LPS) to induce neutrophil influx into the lungs. In the second dosing regimen, mice were treated with 0.00005, 0.0001, 0.001, 0.01, 0.03, 0.1, 0.5 or 5 mg/kg BI 1291583, or vehicle, once daily by oral gavage for 11 consecutive days. On Day 12, a final dose of BI 1291583 or vehicle was given followed by LPS challenge.
Four and a half hours after LPS challenge, lung neutrophils were harvested by lavage via tracheal cannula, and neutrophil count measured. Bronchoalveolar lavage fluid (BALF) samples were then centrifuged and cell pellets lysed with volume of lysis buffer normalised to neutrophil count. NE, CatG and PR3 activity were determined by conversion of a fluorescent substrate measured over time with a SpectramaxM5 fluorescence reader at 360 nm excitation wavelength and 460 nm emission wavelength. Fluorescence values were normalised to neutrophil count, and mean NE, CatG and PR3 activity from BI 1291583-treated animals was calculated relative to the mean of LPS/vehicle-treated control animals. CatG and PR3 activity was measured in pooled samples from each dose group. For the 11-day dosing experiments, the dose of BI 1291583 that inhibited 50% of NE activity (ED50) was calculated using GraphPad Prism software (version 9.5.0 for Windows, GraphPad Software, www.graphpad.com) with a non-linear regression curve fit. […] A one-way analysis of variance with Dunnett’s multiple comparisons test analysis was performed to determine statistical significance.
The inhibitory activity of INS1007 on the production of active NE, and distribution of INS1007 to bone marrow and plasma was investigated under the same conditions as the 11-day dosing regimen (see Methods, Additional File 1).
The animals were treated with BI 1291583 (0.005, 0.05, 0.5 and 5 mg/kg) or vehicle twice daily on Days 1‒5, 8 and 9. BI 1291583 or vehicle was applied orally by gavage (10 ml/kg body weight). On Day 10, animals were treated with BI 1291583 or vehicle followed by an LPS inhalation challenge.
The animals were treated with BI 1291583 (0.00005, 0.0001, 0.001, 0.01, 0.03, 0.1, 0.5, 5 mg/kg) or vehicle once daily for 11 consecutive days. BI 1291583 or vehicle was applied orally by gavage (10 ml/kg body weight). On Day 12, animals were treated with BI 1291583 or vehicle followed by an LPS inhalation challenge.
To induce neutrophil influx into the lungs, animals were challenged with an LPS inhalation at Day 12 of this study. LPS from E.coli (serotype 055:B5) was used (SigmaAldrich #L2880). […]
The trachea was cannulated and a lavage was performed using 2x1 ml lavage buffer (HBSS [HyClone, # Sh30588,01] with 10 U/ml heparin). Cell count in the lavage fluid and cell differentiation were determined using a haemocytometer (Sysmex XT-200i), following the supplier’s instructions.
For enzymatic NE measurement, the lavage cells were separated from two 500 µl aliquots of lavage fluid by centrifugation (1500rpm, 4°C, 15min), the supernatants were removed and the pellets were stored at -80°C for further analyses. For enzymatic proteinase 3 (PR3) and Cat G measurement, the remaining lavage samples from all animals of each dose group were pooled and cell count and cell differentiation were determined as described above. […]

The nature of data set [4]: Bone marrow and plasma exposure after repeated oral dosing (LC-MS/MS). The format is in vivo. To be noted: Crl:NMRI, mouse, 11-day dosing; for Kp at 5 h: bone marrow/plasma, 5 h after final dose, read-out: bone marrow-to-plasma exposure ratio. The procedure:
At 5 h after final BI 1291583 administration, animals were euthanised by Narcoren application (400–600 mg/kg intraperitoneally). For assessment of BI 1291583 exposure in plasma, five drops of retrobulbar blood were taken. The femur was prepared by extraction, shock frozen in liquid nitrogen and stored at − 20 °C until bone marrow preparation. For preparation of bone marrow, epiphysis severed off and bone marrow extracted from the diaphysis. Exposure was measured via liquid chromatography–tandem mass spectrometry. […]

The subject of another data set is healthy volunteers. More on the design: method as in PMID 29484635. Conditions: once daily up to 40 mg for up to 28 days; cited from earlier work.
Data set [5] concerns patients with bronchiectasis. Conditions: 10 mg or 25 mg once daily, 24 weeks; cited from earlier work.

`CC[C@@H](/C=C/C(=O)N1CCc2ccccc21)NC(=O)C1(N)CCOCC1` [GSK2793660]: in data set [1], the “inhibition of downstream NSPs” value is “insufficient inhibition of downstream NSPs” and the skin events entry was “marked skin desquamation events”.

A word on the IC50: it is the concentration that gives 50% inhibition. For orientation: ED50 means the dose at which the effect has come halfway, by size or by number of responders. For `Cn1c(=O)oc2ccc(-c3ccc(C[C@@H](C#N)NC(=O)[C@@H]4CNCCCO4)cc3)cc21` [INS1007], in data set [2], the IC50 was determined as 64 nM. Besides, the “inhibition of production of active NE compared with vehicle/LPS control” value in data set [3] (0.1 mg/kg once daily oral) was “no inhibition”. The inhibition at 30 mg/kg in data set [3] (Mus musculus, Neutrophil, 264 h, at 30 mg/kg (range 0.3-50 mg/kg), p<0.001, read-out: maximum inhibition of production of active NE compared with LPS control) worked out at 76%. Besides, in data set [3] (Mus musculus, Neutrophil, po, 264 h, 0.5 mg/kg once daily oral, read-out: inhibition of production of active NE compared with vehicle/LPS control), the inhibition at 0.5 mg/kg stood at 19%. For the same molecule, the inhibition at 5 mg/kg in data set [3] (Mus musculus, Neutrophil, po, 264 h, 5 mg/kg once daily oral, read-out: inhibition of production of active NE compared with vehicle/LPS control) was determined as 75%. For the same molecule, in data set [3] (Neutrophil, 264 h, once daily oral, read-out: ED50 for NE inhibition), the ED50 is 1.4 mg/kg. In addition, the concentration at 5 h came out at 143 nM in data set [4] (bone marrow, 0.1 mg/kg, 5 h after final dose on Day 12, read-out: exposure in bone marrow, mean (SEM)); 321 nM in data set [4] (bone marrow, 0.5 mg/kg, 5 h after final dose on Day 12, read-out: exposure in bone marrow, mean (SEM)); 1690 nM in data set [4] (bone marrow, 5 mg/kg, 5 h after final dose on Day 12, read-out: exposure in bone marrow, mean (SEM)); 6 nM in data set [4] (plasma, 0.1 mg/kg, 5 h after final dose on Day 12, read-out: exposure in plasma, mean (SEM)); 40 nM in data set [4] (plasma, 0.5 mg/kg, 5 h after final dose on Day 12, read-out: exposure in plasma, mean (SEM)); 710 nM in data set [4] (plasma, 5 mg/kg, 5 h after final dose on Day 12, read-out: exposure in plasma, mean (SEM)). For the same molecule, the Kp at 5 h in data set [4] (0.1 mg/kg, 0.1 mg/kg) was determined as 24; in data set [4] (0.5 mg/kg, 0.5 mg/kg) it was 8; in data set [4] (5 mg/kg, 5 mg/kg) it was 2.

Consider `Cn1c(=O)oc2ccc(-c3ccc(C[C@@H](C#N)NC(=O)[C@@H]4CNCCCO4)cc3)cc21` [brensocatib], for which, in the data set with healthy volunteers, the NE activity result is “Exposure-related reduction”; the safety profile result is “generally well-tolerated”; the skin findings entry was “several dose-dependent, possibly CatC-related non-serious skin findings (exfoliation and hyperkeratosis)”. In data set [5], the “annualised rates of exacerbations and number of severe exacerbations compared with placebo” value is on record as “lower”; the “incidence of hyperkeratosis compared with the placebo group” value is on record as “higher”; the “risk of exacerbation over the treatment period compared with placebo” value is “lower”; the “time to first exacerbation compared with placebo” value is given as “significantly increased”.
